≈ marks a conversion by molar mass, not a printed value. Counter-ions that a name gives are not always drawn. Like-named read-outs stand apart in the source and are kept apart here.
Assays:
[1] = tested on: Guinea pigs sensitized to ovalbumin (anaphylactic shock); assay: Anaphylaxis in guinea pigs: protection against death after ovalbumin challenge (survival); format: in vivo, guinea pig; settings: Cavia porcellus, estimated ED50, oral, protection against death after i.v. 0.6 mg ovalbumin, read-out: Anaphylaxis in guinea pigs oral effective dose in mg/kg: Survival
Outline: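 Guinea pigs (400–500 g) sensitized by subplantar ovalbumin antiserum, dosed orally 24 h later. ED50 is the oral dose protecting 50% of animals from death.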

[2] = tested on: histamine paw oedema in guinea pigs; assay: Histamine paw oedema in guinea pigs; format: in vivo, guinea pig; settings: Cavia porcellus, oral dose giving paw reaction below 10 units 10 minutes after 50 μg histamine s.p., 2 hours after dosing, read-out: Anaphylaxis in guinea pigs oral effective dose in mg/kg: Histamine oedema
Outline: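 Guinea pigs of 400–500 g were dosed orally with compound or saline 24 h after subplantar ovalbumin antiserum sensitisation in the left hind paw. Two hours after dosing, histamine 50 μg was injected subplantar into the right hind paw to induce oedema.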

[3] = tested on: Guinea-pig ileum strips, histamine-induced contraction; assay: Anti-histamine activity in "vitro": histamine-induced spasms of guinea-pig ileum strips; format: cell-based; settings: Cavia porcellus, 5 min, histamine 0.5 mg/liter, 5 minutes incubation, concentration giving significant inhibition (50%) of the contraction
Procedure: The histamine--(0.5 mg/liter) induced spasms are recorded Kymographically with an isotonic lever giving a 5-fold magnification.

[4] = Table I-b, read-out: Histamine in "vitro" (ileum) effective conc.
[5] = Table I-a, read-out: Histamine in "vitro" (ileum) effective conc.

Structure (SMILES)	ED50 ([1]; Table I-b) [mg/kg]	minimal effective dose ([2]; Table I-b) [mg/kg]	IC50 [3, 4] [µg/mL]	ED50 ([1]; Table I-a) [mg/kg]	minimal effective dose ([2]; Table I-a) [mg/kg]	IC50 [3, 5] [µg/mL]	other results
c1ccc(C(c2ccccc2)N2CCN(CCCCn3cnc4ccccc43)CC2)cc1 [I-b: M=H, R1=H, (CH2)4, R6=H, R7=H, 1-[4-[4-(diphenylmethyl)-1-piperazinyl]butyl}-1H-benzimidazole]	0.16	0.16	0.0025 (≈ 0.00589 µM)				
Sc1nc2ccccc2n1CCCN1CCN(C(c2ccccc2)c2ccccc2)CC1 [I-b: M=HS, R1=H, (CH2)3, R6=H, R7=H, 1-{3-[4-(diphenylmethyl)-1-piperazinyl]propyl}-1H-benzimidazole-2-thiol]	0.63	1.25	0.01 (≈ 0.0226 µM)				
Cc1ccc(C(c2ccccc2)N2CCN(CCCn3c(=O)[nH]c4ccccc43)CC2)cc1 (stereo not drawn) [1,3-dihydro-1-[3-{4-[(4-methylphenyl)phenylmethyl]-1-piperazinyl}-propyl}-2H-benzimidazol-2-one]				< 2.5	< 2.5	0.08 (≈ 0.182 µM)	
CC(CN1CCN(C(c2ccc(F)cc2)c2ccc(F)cc2)CC1)Cn1cnc2ccccc21 (stereo not drawn) [1-[3-{4-[bis(4-fluorophenyl)methyl]-1-piperazinyl}-2-methylpropyl]-1H-benzimidazole trihydrochloride.hemihydrate]	0.63	1.25	0.02				
O=c1sc2ccccc2n1CCCN1CCN(C(c2ccccc2)c2ccccc2)CC1 [I-c: Y=S, 3-{3-[4-(diphenylmethyl)-1-piperazinyl]propyl}-2(3H)-benzothiazolone dihydrochloride.hemihydrate]							ED50 ([1]; Table I-c): 1.25 mg/kg; minimal effective dose ([2]; Table I-c): 1.25 mg/kg; IC50 ([3]; Table I-c, read-out: Histamine in "vitro" (ileum) effective conc.): 0.01 µg/mL
O=c1[nH]c2ccccc2n1CCCN1CCN(C(c2ccccc2)c2ccc(Br)cc2)CC1 (stereo not drawn) [1-[3-{4-[(4-bromophenyl)phenylmethyl]-1-piperazinyl}propyl]-1,3-dihydro-2H-benzimidazol-2-one]				< 2.5	< 2.5	0.16 (≈ 0.317 µM)	
Cc1ccc2[nH]c(=O)n(CCCN3CCN(C(c4ccccc4)c4ccccc4)CC3)c2c1 [1-{3-[4-(diphenylmethyl)-1-piperazinyl]propyl}-1,3-dihydro-6-methyl-2H-benzimidazol-2-one]				0.16	0.31	0.01 (≈ 0.0227 µM)	
c1ccc(C(c2ccccc2)N2CCN(CCCn3cnc4ccccc43)CC2)cc1 [I-b: M=H, R1=H, (CH2)3, R6=H, R7=H]	0.08	0.16	0.0025 (≈ 0.00609 µM)				
O=c1[nH]c2ccccc2n1CCCN1CCN(C(c2ccccc2)c2ccc(F)cc2)CC1 (stereo not drawn) [1-[3-{4-[α-(4-fluorophenyl)-α-phenylmethyl]-1-piperazinyl}propyl]-1,3-dihydro-2H-benzimidazol-2-one]				0.31	0.31	0.01 (≈ 0.0225 µM)	
Cl.Cl.Cl.Clc1ccccc1C(c1ccccc1)N1CCN(CCCn2cnc3ccccc32)CC1.O.O (stereo not drawn) [I-b: M=H, R1=H, (CH2)3, R6=2-Cl, R7=H, 1-[3-{4-[(2-chlorophenyl)phenylmethyl]-1-piperazinyl}propyl]1H-benzimidazole trihydrochloride dihydrate]	1.25	1.25	0.01				
O=c1[nH]c2ccccc2n1CCCCN1CCC(OC(c2ccccc2)c2ccccc2)CC1 [1-{4-[4-(diphenylmethoxy)-1-piperidinyl]butyl}-1,3-dihydro-2H-benzimidazol-2-one]							ED50 ([1]; Table I-d): 0.63 mg/kg; minimal effective dose ([2]; Table I-d): 0.31 mg/kg; IC50 ([3]; Table I-d, read-out: Histamine in "vitro" (ileum) effective dose): 0.005 µg/mL (≈ 0.011 µM)
Fc1ccc(C(c2ccc(F)cc2)N2CCN(CCCCn3cnc4ccccc43)CC2)cc1 [I-b: M=H, R1=H, (CH2)4, R6=4-F, R7=4-F, 1-[4-{4-[bis(4-fluorophenyl)methyl]-1-piperazinyl}butyl]-1H-benzimidazole]	0.31	0.31	0.005 (≈ 0.0109 µM)				
O=c1[nH]c2ccccc2n1CCCCN1CCN(C(c2ccc(F)cc2)c2ccc(F)cc2)CC1 [1-[4-{4-[bis(4-fluorophenyl)methyl]-1-piperazinyl}-butyl]-1,3-dihydro-2H-benzimidazol-2-one dihydrochloride.hydrate.hemiethanolate]				0.16	0.31	0.01	
Cc1nc2ccccc2n1CCCN1CCN(C(c2ccccc2)c2ccccc2)CC1 [I-b: M=CH3, R1=H, (CH2)3, R6=H, R7=H, 1-{3-[4-(diphenylmethyl)-1-piperazinyl]propyl}-2-methyl-1H-benzimidazole]	2.5	2.5	0.02 (≈ 0.0471 µM)				
O=c1[nH]c2cc(Cl)ccc2n1CCCN1CCN(C(c2ccc(F)cc2)c2ccc(F)cc2)CC1 [1-[3-{4-[bis(4-fluorophenyl)methyl]-1-piperazinyl}propyl]-5-chloro-1,3-dihydro-2H-benzimidazol-2-one]				1.25	1.25	0.04 (≈ 0.0805 µM)	
Cn1c(=O)n(CCCN2CCN(C(c3ccccc3)c3ccccc3)CC2)c2ccccc21 [1-{3-[4-(diphenylmethyl)-1-piperazinyl]propyl}-1,3-dihydro-3-methyl-2H-benzimidazol-2-one dihydrochloride. hydrate]				1.25	2.5	0.01	
O=c1[nH]c2ccccc2n1CCCN1CCN(C(c2ccc(F)cc2)c2cccnc2)CC1 (stereo not drawn) [I-e: Ar1=4-FC6H4, Ar2=3-pyridinyl, 1-[3-{4-[(4-fluorophenyl)(3-pyridinyl)methyl]-1-piperazinyl}propyl]-1,3-dihydro-2H-benzimidazol-2-one]							ED50 ([1]; Table I-e): < 2.5 mg/kg; minimal effective dose ([2]; Table I-e): < 2.5 mg/kg; IC50 ([3]; Table I-e, read-out: Histamine in "vitro" (ileum) effective dose): 0.08 µg/mL (≈ 0.18 µM)
CCOC(=O)CCn1c(=O)n(CCCN2CCN(C(c3ccccc3)c3ccccc3)CC2)c2ccccc21 [ethyl 3-{3-[4-(diphenylmethyl)-1-piperazinyl]propyl}-2,3-dihydro-2-oxo-1H-benzimidazole-1-propanoate dihydrochloride. dihydrate]				0.63	0.63	0.005	

— patent US4250176A, “Piperazine derivatives” (priority 1979, dated 1981)
